Laboratory results: patent publication US5266562A, “Anti-inflammatory agents” (The United States of America as represented by the …, priority 1987, dated 1993)
Read-outs that look alike come from different tables or passages of the source.

Assays:
[1] = system: prostanoid levels (PGE2, PGF2α) in skin lesions; experiment: Prostanoid levels (radioimmunoassay) in tissues injected with phorbol myristate acetate; format: in vivo, rabbit; conditions: for Effect on tissue prostanoid levels (PGE2, PGF2α) (in words): rabbit skin lesions injected with phorbol; for Prostaglandin levels PGE2 / Prostaglandin levels PGF2 α: rabbit skin lesions, phorbol 10 μM then test substance 20 μM 0.1 ml after 5 minutes, mean of two experiments; for Prostaglandin levels PGF2 α: ND = Nondetectable
Procedure: These tissues were used for histopathological analysis.
A similar groups of animals were sacrificed 48 hours after the injections were made and the skin lesions were dissected out and homogenized in cold phosphate buffered saline (PBS, pH 7.4). The homogenate was centrifuged at 2500×g for 10 minutes at 4° C. The supernatants were frozen at -70° C. until assayed for prostaglandins.

[2] = system: phorbol myristate acetate induced inflammation on rabbit skin; conditions: for Histopathology: inflammatory cells in phorbol injected skin (in words) / Effect on phorbol induced erythema and induration (in words) / Erythema (mm), Phorbol injected / Induration (mm), Phorbol injected: rabbit skin; for Histopathology: inflammatory cells in phorbol injected skin (in words): 20 μM injected after phorbol, FIG. 3; for Erythema (mm), Phorbol injected / Induration (mm), Phorbol injected: phorbol myristate acetate 10 μM, 0.1 ml, test substance 20 μM, mean ± SEM
Procedure: Animals: Virgin New Zealand rabbits weighting 3-3.5 Kg were used for all experiments. These animals were housed in separate cages and provided with food and water ad libitum. A daily schedule of 12 hours light and 12 hours darkness was maintained throughout the experimental period.
Induction of inflammation and the effect of uteroglobin: The dorsal skin of rabbits was shaved and 1/2 square inch areas demarcated lightly with a felt tip marker pen. […] The demarcated areas were used for identifying the locations where phorbol, carragennin, or other test substances were injected. Using a 25 gauge needle and a tuberculin syringe (1 cc), phorbol myristate acetate solution (10 mM) was injected into all areas, except for two, where no injections were given and two other areas where the solvent of phorbol myristate, dimethyl sulfoxide (DMSO), was injected alone. Various test substances were injected on one side of the vertebral column and the opposite side was used for controls. Thus, in this system a comparison of phorbol induced inflammation with the effects of various test substances could easily be made. These areas were observed daily and the diameter of the erythema and induration for each lesion was measured by the same observer. […] These tissues were used for histopathological analysis.

[3] = equimolar concentrations, concentration not given

Erythema and induration induced by the substance itself (in words) ([2]; rabbit, in vivo)	Molecule	Effect on tissue prostanoid levels (PGE2, PGF2α) (in words) [1]	Prostaglandin levels PGE2 [1]	Prostaglandin levels PGF2 α [1]	Histopathology: inflammatory cells in phorbol injected skin (in words) [2]	Effect on phorbol induced erythema and induration (in words) [2, 3]	Erythema (mm), Phorbol injected [2]	Induration (mm), Phorbol injected [2]	Effect on phorbol induced erythema and induration (in words) ([2]; 10 μM, FIG. 4 dose response)	Effect on phorbol induced erythema and induration (in words) ([2]; 20 μM, FIG. 4 dose response)
–	C[C@@H]1C[C@H]2[C@@H]3CCC4=CC(=O)C=C[C@]4(C)[C@@]3(F)[C@@H](O)C[C@]2(C)[C@@]1(O)C(=O)CO [Dexamethasone]	dramatically reduced these prostanoid levels	106 pg/mg protein	88 pg/mg protein	reduced the density of these inflammatory cells	dramatically reduced both erythema as well as induration	10.5 ± 1.2 mm	8.1 ± 2.0 mm	–	–
induced some erythema and induration	CCCCC/C=C\C/C=C\C/C=C\C/C=C\CCCC(=O)O [arachidonic acid]	–	–	–	–	–	–	–	–	–
–	Myoglobin	–	–	–	did not have any inhibitory effect	did not have any suppressive effect	–	–	–	–
–	Uteroglobin: protein purified from uterine washings of rabbits primed with chorionic gonadotropin; also known as blastokinin (protein, UniProt P02779 22-91, looked up) Uteroglobin: GICPRFAHVIENLLLGTPSSYETSLKEFEPDDTMKDAGMQMKKVLDSLPQTTRENIMKLTEKIVKSPLCM	dramatically reduced these prostanoid levels	94 pg/mg protein	58 pg/mg protein	–	dramatically reduced both erythema as well as induration	6.4 ± 0.5 mm	5.1 ± 0.8 mm	Significant inhibitory effect	most dramatic effect
